The structures appear in SMILES notation. pIC50: −log10 of the molar value. Calls of active or inactive are those of the source. No cut-off for these calls is given here. A value given as a limit tells only on which side of the number the result lay.

31 compounds from ChEMBL document CHEMBL6078728 (Bioorg Med Chem, 2025) can be followed below.

Series [1] is described as follows: Inhibition of NLRP3 inflammasome activation in LPS/ATP stimulated human THP-1 cells assessed as inhibition of IL-1beta production pretreated with compound for 15 mins followed by LPS and ATP addition and measured after 2 hrs by ELISA. The series is classed as cell-based. On the technique in general: An ELISA detects its analyte on a solid surface through an enzyme-linked reagent.

Series [2] is described as follows: Ratio of drug concentration in brain to plasma in male Sprague-Dawley rat at 10 mg/kg, ip measured after 1 hr by LC-MS/MS analysis. The series is classed as ADME, organism-based. Conditions: brain and plasma, read-out: BPR.
In series [3] the target is NACHT, LRR and PYD domains-containing protein 3 (Rattus norvegicus) (UniProt D4A523). To be noted: wistar, dose <= 30.0 mg/kg, route po, time 30.0 min.
Series [4] in a line: Drug concentration in male Sprague-Dawley rat plasma at 10 mg/kg, ip measured after 1 hr by LC-MS/MS analysis. The series is classed as ADME, organism-based.
Series [5] can be described thus: Drug concentration in male Sprague-Dawley rat brain at 10 mg/kg, ip measured after 1 hr by LC-MS/MS analysis. The series is classed as ADME, organism-based. Conditions: read-out: Ct.
Series [6] in a line: Inhibition of NLRP3 inflammasome activation in LPS primed mouse BMDM cells assessed as inhibition of IL-1beta production preincubated with compound for 1 hr followed by nigericin stimulation and measured after 1 hr by ELISA method. The series is classed as cell-based.
In series [7] the target is NACHT, LRR and PYD domains-containing protein 3 (Rattus norvegicus) (UniProt D4A523). The series is described as follows: In vivo inhibition of NLRP3 activation in LPS-induced male wistar rat model assessed as inhibition of IL-1 beta production in CSF at 1 mg/kg, po measured after 30 mins by Western blotting analysis. The series is classed as functional, organism-based.

A further series relates to THP-1. The series is described as follows: Antiinflammatory activity against LPS/ATP stimulated human THP-1 cells assessed as ASC speck formation by DAPI staining based cell analyzer. The series is classed as functional.
Series [8] relates to Mus musculus. The series is described as follows: Improvement of motor dysfunction in pathogenic alpha-synuclein induced male C57BL/6J mouse assessed as reduction in number of falls at 1 mg/kg, po administered once a day for 4 weeks and measured 1 hr after last administration by hanging wire test. The series is classed as functional, organism-based.
Series [9] in a line: Inhibition of NLRP3 inflammasome activation in LPS stimulated human THP-1 cells assessed as inhibition of TNF-alpha production pretreated with compound for 15 mins followed by LPS and ATP addition and measured after 2 hrs by ELISA. The series is classed as cell-based.
Series [10] can be described thus: Ratio of drug concentration in brain to plasma in male Sprague-Dawley rat at 10 mg/kg, po measured after 1 hr by LC-MS/MS analysis. To be noted: brain and plasma, read-out: BPR. Type of series: ADME, organism-based.
The test system of series [11] is Mus musculus. The series is described as follows: Improvement of motor dysfunction in pathogenic alpha-synuclein induced male C57BL/6J mouse assessed as reduction in number of falls at 10 mg/kg, po administered once a day for 4 weeks and measured 1 hr after last administration by hanging wire test. The series is classed as functional, organism-based.
For series [12], the target named is NACHT, LRR and PYD domains-containing protein 3 (Rattus norvegicus) (UniProt D4A523). Briefly: In vivo inhibition of NLRP3 activation in LPS-induced male wistar rat model assessed as inhibition of IL-1 beta production in CSF at 3 mg/kg, po measured after 30 mins by Western blotting analysis. The series is classed as functional, organism-based.
The nature of series [13]: Inhibition of NLRP3 inflammasome activation in alpha-synuclein pre-formed fibril stimulated human THP-1 cells assessed as inhibition of IL-1beta production preincubated with compound for 15 mins followed by alpha-synuclein pre-formed fibril addition and measured after 24 hrs by ELISA. Type of series: cell-based.
Series [14] deals with NACHT, LRR and PYD domains-containing protein 3 (Rattus norvegicus) (UniProt D4A523). The series is described as follows: In vivo inhibition of NLRP3 activation in LPS-induced male wistar rat model assessed as inhibition of IL-1 beta production in CSF at 0.3 mg/kg, po measured after 30 mins by Western blotting analysis. The series is classed as functional, organism-based. A general note: Immunoblotting shows a protein as a band on a membrane.

A short description of series [15]: Intrinsic clearance in human liver microsomes at 0.2 uM in presence of NADPH incubated for 30 mins by LC-MS/MS analysis. The series is classed as ADME, Microsome. To be noted: read-out: CLH. Background: Microsomes from liver hold many membrane-bound enzymes, among them those of drug oxidation.
A short description of series [16]: Intrinsic clearance in rat liver microsomes at 0.2 uM in presence of NADPH incubated for 30 mins by LC-MS/MS analysis. To be noted: read-out: CLH. The series is classed as ADME, Microsome.
Series [17] can be described thus: Drug concentration in male Sprague-Dawley rat brain at 5 mg/kg, ip measured after 1 hr by LC-MS/MS analysis. Conditions: read-out: Ct. The series is classed as ADME, organism-based.
Series [18] can be described thus: Ratio of drug concentration in brain to plasma in male Sprague-Dawley rat at 5 mg/kg, ip measured after 1 hr by LC-MS/MS analysis. The series is classed as ADME, organism-based. Conditions: brain and plasma, read-out: BPR.
A short description of series [19]: Drug concentration in male Sprague-Dawley rat plasma at 5 mg/kg, ip measured after 1 hr by LC-MS/MS analysis. The series is classed as ADME, organism-based.

NACHT, LRR and PYD domains-containing protein 3 (Rattus norvegicus), sequence (D4A523 whole entry, the tested form may be a part): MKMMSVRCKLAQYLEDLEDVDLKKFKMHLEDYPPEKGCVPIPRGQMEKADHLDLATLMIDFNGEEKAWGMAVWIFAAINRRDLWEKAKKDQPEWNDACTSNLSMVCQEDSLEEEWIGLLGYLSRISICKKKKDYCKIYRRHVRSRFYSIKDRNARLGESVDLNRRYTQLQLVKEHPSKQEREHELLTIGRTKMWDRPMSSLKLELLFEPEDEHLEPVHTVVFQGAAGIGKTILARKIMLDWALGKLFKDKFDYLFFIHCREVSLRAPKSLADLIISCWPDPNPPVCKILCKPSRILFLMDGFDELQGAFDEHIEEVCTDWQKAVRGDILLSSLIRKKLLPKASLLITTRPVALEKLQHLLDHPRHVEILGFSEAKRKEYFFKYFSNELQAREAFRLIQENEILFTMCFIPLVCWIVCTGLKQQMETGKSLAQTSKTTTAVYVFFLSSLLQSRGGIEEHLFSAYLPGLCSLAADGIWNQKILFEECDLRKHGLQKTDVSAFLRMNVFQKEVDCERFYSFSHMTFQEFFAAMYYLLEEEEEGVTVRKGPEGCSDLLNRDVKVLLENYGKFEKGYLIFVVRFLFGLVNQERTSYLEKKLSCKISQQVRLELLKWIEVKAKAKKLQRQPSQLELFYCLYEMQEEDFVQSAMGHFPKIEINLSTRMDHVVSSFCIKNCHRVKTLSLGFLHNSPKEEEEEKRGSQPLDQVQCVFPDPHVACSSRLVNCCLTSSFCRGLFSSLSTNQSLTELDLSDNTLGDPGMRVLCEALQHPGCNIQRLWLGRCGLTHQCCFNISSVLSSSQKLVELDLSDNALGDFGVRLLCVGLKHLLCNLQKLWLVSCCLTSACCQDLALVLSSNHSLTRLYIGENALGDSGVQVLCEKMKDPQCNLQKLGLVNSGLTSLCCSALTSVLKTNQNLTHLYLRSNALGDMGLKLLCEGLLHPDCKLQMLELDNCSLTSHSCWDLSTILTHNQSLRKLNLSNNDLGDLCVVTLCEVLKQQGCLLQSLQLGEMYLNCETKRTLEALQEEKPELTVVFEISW

Broadly, the pIC50 is the IC50 on a negative log10 scale, so that one unit is a factor of ten. Turning to `OCCCNc1nnc(-c2cccc(C(F)(F)F)c2)c2ccccc12`, the pIC50 in series [1] is 4.77. For the compound `OCCCNc1nnc(-c2ccccc2C(F)(F)F)c2ccccc12`, in [1], the pIC50 is 5.28. On to `CC(CCO)Nc1nnc(-c2ccc(C(F)(F)F)cc2)c2ccccc12` (stereo not given), for which the pIC50 in series [1] was 5.46.

Consider `Cc1c(N[C@@H]2CCC[C@H]2O)nnc(-c2ccc(C(F)(F)F)cc2O)c1C`, for which the pIC50 in series [1] was 7.55. For the compound `OCCNc1nnc(-c2ccc(C(F)(F)F)cc2)c2ccccc12`, the pIC50 in series [1] is 6.21. Still for that read-out and setting: for `Cc1cc(NC[C@@H](C)O)nnc1-c1ccc(C(F)(F)F)cc1C(F)(F)F` the value was 6.70. Same read-out and setting: in the case of `Cc1c(N[C@H]2CCC[C@@H]2O)nnc(-c2ccc(C(F)(F)F)cc2O)c1C` it was 6.19; in that of `CC(CO)CNc1nnc(-c2ccc(C(F)(F)F)cc2)c2ccccc12` (stereo not given), 6.64; in that of `CC(O)CCNc1nnc(-c2ccc(C(F)(F)F)cc2)c2ccccc12` (stereo not given), 5.92.

Turning to `Cc1c(NC[C@@H](C)O)nnc(-c2ccc(C(F)(F)F)cc2O)c1C`, the pIC50 in series [1] is 7.85. On the same count and under the same terms, in the case of `CC(C)(CO)CNc1nnc(-c2ccc(C(F)(F)F)cc2)c2ccccc12` it was 6.00; in that of `C[C@@H](O)CNc1ccc(-c2ccc(C(F)(F)F)cc2C(F)(F)F)nn1`, 6.82; in that of `C[C@@H](O)CNc1nnc(-c2ccc(C(F)(F)F)cc2)c2ccccc12`, 6.85.

For `Cc1c(N[C@H]2CCC[C@H]2O)nnc(-c2ccc(C(F)(F)F)cc2O)c1C`, the pIC50 in series [1] is 7.57.

Turning to `CC(C)(O)c1coc(S(=O)(=O)NC(=O)Nc2c3c(cc4c2CCC4)CCC3)c1`, in series [2], the Kp at 1 h turned out to be 0.01. Besides, the inhibition result in series [3] was “inactive”. Also, the concentration at 1 h in series [4] was 2320 ng/mL; in [5] it was 23.1 ng/g. The pIC50 in [6] was 8.12.

Consider `OCCCNc1nnc(-c2ccc(C(F)(F)F)cc2)c2ccccc12`, for which, in [1], the pIC50 was 6.43. Same read-out and setting: in the case of `OCCCNc1nnc(-c2ccc(C(F)(F)F)cc2Cl)c2ccccc12` it was 6.46; in that of `Cc1cc(-c2ccc(C(F)(F)F)cc2O)nnc1NC[C@@H](C)O`, 6.80. On to `Cc1c(N[C@@H]2CCCC[C@H]2O)nnc(-c2ccc(C(F)(F)F)cc2O)c1C`, for which the inhibition entry in [7], in [12] and in [14] was “Active” each time. Further, the pIC50 with THP-1 is 8.24; in series [9], less than 5.00; in [13], 8.20. Moreover, the outcome with Mus musculus [8] and with Mus musculus [11] was Active. The Kp at 1 h in series [10] was determined as 0.94. Moreover, the microsomal CLint at 0.2 µM in series [15] and in series [16] was less than 20 µL/min/mg in each case. For `Cc1c(NC[C@@H](C)O)nnc(-c2ccc(C(F)(F)F)cc2C(F)F)c1C`, in series [1], the pIC50 is 6.23.

As for `Cc1c(NC[C@@H](C)O)nnc(-c2ccc(C(F)(F)F)cc2C(F)(F)F)c1C`, the negative logarithm of the IC50 (pIC50) in [1] is 6.68. With `Cc1cc(C(F)(F)F)ccc1-c1nnc(NCCCO)c2ccccc12`, in series [1], the pIC50 was 6.31. Consider `Cc1ccc(-c2nnc(NCCCO)c3ccccc23)cc1`, for which the pIC50 in the series with THP-1 was 5.51; in [9], less than 5.00; in [1], 5.70. The values for the concentration at 1 h in series [17] and in series [19] were 117 ng/g and 360 ng/mL, respectively. The Kp at 1 h in series [18] came to 0.33. As to `C[C@H](O)CNc1nnc(-c2ccc(C(F)(F)F)cc2)c2ccccc12`, the pIC50 in series [1] was 6.64.

Turning to `Cc1cc(-c2ccc(C(F)(F)F)cc2C(F)(F)F)nnc1NC[C@@H](C)O`, the pIC50 in [1] was 7.05. With `OCCCNc1nnc(-c2ccc(C(F)(F)F)cc2F)c2ccccc12`, the pIC50 in series [1] was 6.29. Turning to `OCCCNc1nnc(-c2ccc(C(F)(F)F)c(F)c2)c2ccccc12`, the pIC50 in series [1] was 6.01. The same measure, in the same setting: for `OCCCNc1nnc(-c2ccc(C(F)(F)F)cc2C(F)(F)F)c2ccccc12` the value was 6.96; for `C[C@@H](O)CNc1nnc(-c2ccc(C(F)(F)F)cc2C(F)(F)F)c2ccccc12`, 7.24. As to `COCCCNc1nnc(-c2ccc(C(F)(F)F)cc2)c2ccccc12`, the pIC50 in series [1] is 5.77. For the compound `Cc1cc(NC[C@@H](C)O)nnc1-c1ccc(C(F)(F)F)cc1O`, the pIC50 in series [1] is 7.77.
